Laboratory results published in US11318157B2, “6-6 bicyclic aromatic ring substituted nucleoside analogues for use as PRMT5 inhibitors” (Janssen Pharmaceutica NV, priority 2015, dated 2022).
Like-named read-outs stand apart in the source and are kept apart here.

Assays:
[1] = test system: nuclear symmetric Arginine dimethylation in A549 cells; experiment: PD assay (assay 2): inhibition of nuclear symmetric Arginine dimethylation (SYM10 immunohistochemistry), 48 h; assay type: cell-based; conditions: Homo sapiens
In short: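 Cells seeded at 400/well overnight, then treated 48 h at 37 °C, final DMSO 0.2%. Fixed and stained with SYM10 antibody plus Alexa 488 secondary, Hoechst and CellMask, then imaged on Opera. Normalized to DMSO (high) and 10 μM reference compound (low); averaged pIC50 reported.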

[2] = molecular target: T1, PRMT5-MEP50 enzyme (Homo sapiens, UniProt O14744); experiment: In vitro assay 1b: high throughput mass spectrometer assay of SAH formation, 1.25 nM enzyme, 120 min; assay type: biochemical; conditions: averaged values; PRMT5-MEP50, 1.25 nM enzyme, 120 min; read-out: pIC50 Assay 1b (converted)
T1 construct: One virus expresses full length human PRMT5 with Flag-tag at N-terminus; Flag (N); purchased Charles River (Argenta); host or cells: insect cells (Sf9), baculovirus co-infection
In short: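 SAH product measured by RapidFire mass spectrometry after formic acid stop; IC50 from 11-point 1:2 dilutions, four-parameter fit. Reactions at 30 °C in 20 mM Tris pH 8.5 with 1 μM SAM, 0.3 μM H2A: assay 1a 10 nM PRMT5-MEP50, 60 min; assay 1b 1.25 nM, 120 min.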

[3] = molecular target: T1, PRMT5-MEP50 enzyme; experiment: In vitro assay 1a: high throughput mass spectrometer assay of SAH formation, 10 nM enzyme, 60 min; assay type: biochemical; conditions: averaged values, PRMT5-MEP50, 10 nM enzyme, read-out: pIC50 Assay 1a (converted)
Description: Experimental Procedures In Vitro Assay (Assay 1a and 1b)
PRMT5-MEP50 enzyme was purchased from Charles River (Argenta). The enzyme complex was produced in insect cells (Sf9) infected simultaneously with two baculoviruses. One virus expresses full length human PRMT5 with Flag-tag at N-terminus, the second virus expresses full length MEP50 with His6-TEV cleavage at N-terminus. The protein was affinity purified using anti-Flag (M2) beads eluted with 3×FLAG peptide, followed by His-Select eluted with 0.5M imidazole. Eluted protein was then dialysed against tris-buffered saline (TBS) (pH 8.0) containing 20% glycerol and 3 mM dithiothreitol (DTT).
Full-length untagged human recombinant histone H2A (residues 1-130, Genbank Accession #NM_021052 MW=14.1 kDa) expressed in E. coli was purchased from Reaction Biology Corporation, Cat #HMT-11-146. Reagents used for making reaction buffer or stopping reaction were purchased including Tris base (Sigma Cat #T-1503), NaCl (Sigma Cat #RGF-3270), MgCl2 (Sigma Cat #M0250), DTTI (Invitrogen Cat #15508-013) and Formic Acid (Riedel deHaen, Cat #33015)
High Throughput Mass Spectrometer Assay
PRMT5 catalyzes the sequential methylations of the terminal nitrogen atoms on the guanidine groups of arginine residues within proteins using co-substrate S-adenosyl-L-methionine (AdoMet, SAM), forming mono-methyl (MMA), symmetric-dimethyl arginine (sDMA) and S-adenosyl-L-homocysteine (AdoHcy, SAH). The enzyme activity was determined by following the product SAH formation using high throughput mass spectrometry (Agilent Rapidfire 300 System coupled to a Sciex 4000 series QTrap® triple-quad MS/MS). The reaction buffer was 20 mM Tris-HCl, pH 8.5, 50 mM NaCl, 5 mM MgCl2 and 1 mM DTT. The reaction activity was stopped using 1% formic acid (final concentration).
The IC50 Studies were performed using eleven point dosing series made for each compound by serially diluted 1:2 in dimethyl sulfoxide (DMSO), with point 12 being a DMSO control. Compounds were first spotted to plates, and followed by addition of 2 μM SAM and 0.6 μM H2A (histone H2A) solution mixture. The same volume of enzyme solution was added to initiate the enzymatic reactions. The final concentrations of the reaction are at 1 μM SAM, 0.3 μM H2A and 10 nM enzyme (assay 1a) or 1.25 nM enzyme (assay 1b). The reaction was incubated at 30° C. for 60 minutes (min) when 10 nM enzyme was used and for 120 min when 1.25 nM enzyme was used. Subsequently, the reaction was quenched by addition of formic acid to a final concentration of 1%. The inhibitions of SAH formation in the presence of compounds were calculated as a percentage of the control relative to the uninhibited reaction as a function of inhibitor concentration. The data were fit as follows: Y=Bottom+(Top−Bottom)/(1+10^((log IC50−X)*h))
where IC50 is the inhibitor concentration (same unit as X) at 50% inhibition and h is the Hill slope. Y is percent of inhibition, X is log of compound concentration. Bottom and Top are the plateaus in same units as Y.

[4] = A549, averaged values, PD assay, A549 cells, symmetric Arginine dimethylation, read-out: pIC50 Assay 2 (converted)

T1 sequence (O14744 whole entry): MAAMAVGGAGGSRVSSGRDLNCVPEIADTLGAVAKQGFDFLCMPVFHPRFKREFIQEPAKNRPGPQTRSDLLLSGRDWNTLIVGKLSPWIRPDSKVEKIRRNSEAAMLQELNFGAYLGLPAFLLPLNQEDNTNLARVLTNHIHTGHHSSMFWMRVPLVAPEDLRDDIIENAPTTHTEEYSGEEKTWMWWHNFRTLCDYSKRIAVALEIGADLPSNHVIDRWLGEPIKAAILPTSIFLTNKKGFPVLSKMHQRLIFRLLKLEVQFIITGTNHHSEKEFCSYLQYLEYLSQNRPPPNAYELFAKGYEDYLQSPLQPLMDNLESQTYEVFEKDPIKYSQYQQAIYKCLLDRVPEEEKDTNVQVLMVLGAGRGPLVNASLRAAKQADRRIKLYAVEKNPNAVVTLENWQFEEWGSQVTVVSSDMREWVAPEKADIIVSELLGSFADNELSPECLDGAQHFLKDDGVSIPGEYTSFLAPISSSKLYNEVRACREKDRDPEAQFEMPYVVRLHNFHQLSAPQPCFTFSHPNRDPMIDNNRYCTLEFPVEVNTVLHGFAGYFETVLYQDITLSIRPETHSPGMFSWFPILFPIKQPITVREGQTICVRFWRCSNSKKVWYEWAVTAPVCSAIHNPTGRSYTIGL
T1 sequence (Q9BQA1 whole entry partner): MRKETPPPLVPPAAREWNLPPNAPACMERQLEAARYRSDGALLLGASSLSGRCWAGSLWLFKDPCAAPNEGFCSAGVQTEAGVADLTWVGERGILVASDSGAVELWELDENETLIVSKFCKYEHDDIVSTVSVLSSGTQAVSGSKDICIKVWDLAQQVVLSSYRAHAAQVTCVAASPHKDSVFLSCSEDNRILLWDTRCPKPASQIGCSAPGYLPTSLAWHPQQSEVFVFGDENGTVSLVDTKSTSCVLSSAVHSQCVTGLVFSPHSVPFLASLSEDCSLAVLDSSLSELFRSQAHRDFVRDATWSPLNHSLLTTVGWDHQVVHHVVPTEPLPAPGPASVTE

Structure (SMILES) | IC50 [1, 4] [µM] | IC50 [2] [µM] | IC50 [3] [µM] | IC50 ([1]; A549, read-out: pIC50 Assay 2 (converted)) [µM]
Nc1ncnc2c1ccn2[C@@H]1O[C@H](COc2cc3ncccc3cc2I)[C@@H](O)[C@H]1O [Compound 3] | 0.631 | 0.158 | 0.0398 | 
Nc1nc(Cl)nc2c1ccn2[C@@H]1O[C@H](COc2ccc3cc(Cl)cnc3c2)[C@@H](O)[C@H]1O [Compound 4] | ~0.617 | 0.2 | 0.0631 | 
Nc1ncnc2c1ccn2[C@@H]1O[C@H](COc2cccc3ncccc23)[C@@H](O)[C@H]1O [Compound 5] | > 10 | 5.01 | 2 | 
Nc1ncnc2c1ccn2[C@@H]1O[C@H](COc2cccc3cnccc23)[C@@H](O)[C@H]1O [Compound 6] | > 10 | 5.01 | 3.16 | 
Nc1ncnc2c1ccn2[C@@H]1O[C@H](COc2cccc3cccnc23)[C@@H](O)[C@H]1O [Compound 8] | > 10 | 12.6 | 6.31 | 
Nc1ncnc2c1ccn2[C@@H]1O[C@H](COc2cnc3ccccc3c2)[C@@H](O)[C@H]1O [Compound 10] | ~7.08 | 3.98 | 3.16 | 
Nc1ncnc2c1ccn2[C@@H]1O[C@H](COc2ccc3ncccc3c2)[C@@H](O)[C@H]1O [Compound 11] | > 10 | 7.94 | 3.16 | 
Nc1ncnc2c1ccn2[C@@H]1O[C@H](COc2ccc3cnccc3c2)[C@@H](O)[C@H]1O [Compound 12] | > 10 | 3.98 | 1.58 | 
Nc1ncnc2c1ccn2[C@@H]1O[C@H](COc2ccc3ccncc3c2)[C@@H](O)[C@H]1O [Compound 13] | 15.8 | 2 | 0.794 | 
Nc1ncnc2c1ccn2[C@@H]1O[C@H](COc2ccc3cncnc3c2)[C@@H](O)[C@H]1O [Compound 16] | 5.01 | 1.26 | 0.251 | 
Nc1ncnc2c1ccn2[C@@H]1O[C@H](COc2ccc3cccnc3n2)[C@@H](O)[C@H]1O [Compound 17] | 7.94 | 1.58 | 1 | 
Nc1ncnc2c1ccn2[C@@H]1O[C@H](COc2ccc3ccc(O)nc3c2)[C@@H](O)[C@H]1O [Compound 18] | ~10 | 0.316 | 0.0794 | 
COc1ccc2ccc(OC[C@H]3O[C@@H](n4ccc5c(N)ncnc54)[C@H](O)[C@@H]3O)cc2n1 [Compound 19] | > 20 | 3.16 | 1.58 | 
Cc1ccc2ccc(OC[C@H]3O[C@@H](n4ccc5c(N)ncnc54)[C@H](O)[C@@H]3O)cc2n1 [Compound 21] | 5.01 | 1.58 | 1.26 | 
Nc1ncnc2c1ccn2[C@@H]1O[C@H](COc2ccc3ccc(C(F)(F)F)nc3c2)[C@@H](O)[C@H]1O [Compound 22] | ~17.8 | 25.1 | 6.31 | 
CN(C)c1ccc2ccc(OC[C@H]3O[C@@H](n4ccc5c(N)ncnc54)[C@H](O)[C@@H]3O)cc2n1 [Compound 23] |  | 0.316 | 0.501 | 0.398
Nc1ncnc2c1ccn2[C@@H]1O[C@H](COc2ccc3cc(F)cnc3c2)[C@@H](O)[C@H]1O [Compound 24] | 0.794 | 0.126 | 0.0398 | 
Nc1ncnc2c1ccn2[C@@H]1O[C@H](COc2ccc3cc(Cl)cnc3c2)[C@@H](O)[C@H]1O [Compound 25] | 0.126 | 0.0398 | 0.0126 | 
COc1cnc2cc(OC[C@H]3O[C@@H](n4ccc5c(N)ncnc54)[C@H](O)[C@@H]3O)ccc2c1 [Compound 26] | ~0.251 | 0.2 | 0.0631 | 
Nc1ncnc2c1ccn2[C@@H]1O[C@H](COc2ccc3cc(C(F)(F)F)cnc3c2)[C@@H](O)[C@H]1O [Compound 27] | ~1.15 | 0.794 | 0.398 | 
N#Cc1cnc2cc(OC[C@H]3O[C@@H](n4ccc5c(N)ncnc54)[C@H](O)[C@@H]3O)ccc2c1Cl [Compound 28] | > 20 | 7.94 | > 10 | 
N#Cc1cnc2cc(OC[C@H]3O[C@@H](n4ccc5c(N)ncnc54)[C@H](O)[C@@H]3O)ccc2c1N [Compound 29] | 15.8 | 1.26 | 0.501 | 
COc1cc2c(Cl)c(C#N)cnc2cc1OC[C@H]1O[C@@H](n2ccc3c(N)ncnc32)[C@H](O)[C@@H]1O [Compound 30] | > 10 | 39.8 | > 10 | 
COc1cc2c(N)c(C#N)cnc2cc1OC[C@H]1O[C@@H](n2ccc3c(N)ncnc32)[C@H](O)[C@@H]1O [Compound 31] | > 20 | 3.98 | 3.16 | 
Cc1ccnc2cc(OC[C@H]3O[C@@H](n4ccc5c(N)ncnc54)[C@H](O)[C@@H]3O)ccc12 [Compound 32] | 0.501 | 0.126 | 0.0398 | 
Nc1ncnc2c1ccn2[C@@H]1O[C@H](COc2ccc3c(Cl)ccnc3c2)[C@@H](O)[C@H]1O [Compound 33] | 0.501 | 0.794 | 0.158 | 
O[C@@H]1[C@H](O)[C@@H](COc2ccc3c(Cl)ccnc3c2)O[C@H]1n1ccc2c(Cl)ncnc21 [Compound 34] | > 20 | > 100 | 7.94 | 
Nc1ncnc2c1ccn2[C@@H]1O[C@H](COc2ccc3c(Cl)c(Cl)cnc3c2)[C@@H](O)[C@H]1O [Compound 35] | 0.398 | 0.794 | 0.398 | 
Nc1ncnc2c1ccn2[C@@H]1O[C@H](COc2cc(C(F)(F)F)c3cccnc3c2)[C@@H](O)[C@H]1O [Compound 37] | 5.01 | 0.631 | 1 | 
Nc1ncnc2c1ccn2[C@@H]1O[C@H](COc2cc3ncccc3cc2C(F)(F)F)[C@@H](O)[C@H]1O [Compound 38] | 0.794 | 0.398 | 0.2 | 
